From patent US7208517B1, “Endothelin antagonists” (Abbott Labortories, priority 1994, dated 2007) come the findings set out here.

Molecules are shown by their SMILES. Read-outs that look alike come from different tables or passages of the source.

One test addresses T1, ETA Receptor (Rattus norvegicus, UniProt P26684).
T1 construct: endogenous in cells; host or cells: MMQ rat pituitary cells (membranes)
T1 sequence (P26684 21-426): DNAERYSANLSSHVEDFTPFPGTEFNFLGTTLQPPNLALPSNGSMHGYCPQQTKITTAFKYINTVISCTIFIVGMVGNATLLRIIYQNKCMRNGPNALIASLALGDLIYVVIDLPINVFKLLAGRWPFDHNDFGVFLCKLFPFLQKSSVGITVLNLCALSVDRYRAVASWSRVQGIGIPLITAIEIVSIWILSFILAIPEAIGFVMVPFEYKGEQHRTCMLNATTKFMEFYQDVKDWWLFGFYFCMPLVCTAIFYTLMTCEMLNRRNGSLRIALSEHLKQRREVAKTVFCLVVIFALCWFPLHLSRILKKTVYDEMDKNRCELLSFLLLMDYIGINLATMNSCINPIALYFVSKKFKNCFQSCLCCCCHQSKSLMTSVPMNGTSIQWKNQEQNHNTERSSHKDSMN
Put plainly: [125I]ET-1 binding to membranes from MMQ cells (ETA receptor binding assay, Table 4). The settings on record: test compound at 1 μM; 0.1 nM [125I]ET-1, MMQ cell membranes, 4 hours at 25° C.

The test system of test [1] is ET-1-induced phosphatidylinositol hydrolysis in MMQ cells. Put plainly: Determination of ET-1-induced phosphatidylinositol (PI) hydrolysis in MMQ cells. The format is cell-based, rat. The settings on record: 1 nM ET-1 challenge, read-out: IC50 (inhibition of ET-induced increase in PI turnover). As for the experimental part:
MMQ cells (0.4×10^6 cells/mL) were labeled with 10 μCi/mL of [^3H]myo-inositol in RPMI for 16 hours. The cells were washed with PBS, then incubated with Buffer A containing protease inhibitors and 10 mM LiCl for 60 minutes. The cells were then incubated with test compounds for 5 minutes, and then challenged with 1 nM ET-1. ET-1 challenge was terminated by the addition of 1.5 mL of 1:2 (v/v) chloroform-methanol. Total inositol phosphates were extracted after adding chloroform and water to give final proportions of 1:1:0.9 (v/v/v) chloroform-methanol-water as described by Berridge (Biochem. J. 206 587–595 (1982)). The upper aqueous phase (1 mL) was retained and a small portion (100 μL) was counted. The rest of the aqueous sample was analyzed by batch chromatography using anion-exchange resin AG1-X8 (Bio-Rad). […] The results of the above study clearly indicate that the compounds act as functional ET antagonists.

Test [2] addresses T2, ETB receptors of porcine cerebellar tissues (pET-B) (Sus scrofa, UniProt P35463).
T2 construct: porcine cerebellar tissues (known to contain ETB receptors); from tissue; host or cells: porcine cerebellum (membranes)
T2 sequence (P35463 27-443): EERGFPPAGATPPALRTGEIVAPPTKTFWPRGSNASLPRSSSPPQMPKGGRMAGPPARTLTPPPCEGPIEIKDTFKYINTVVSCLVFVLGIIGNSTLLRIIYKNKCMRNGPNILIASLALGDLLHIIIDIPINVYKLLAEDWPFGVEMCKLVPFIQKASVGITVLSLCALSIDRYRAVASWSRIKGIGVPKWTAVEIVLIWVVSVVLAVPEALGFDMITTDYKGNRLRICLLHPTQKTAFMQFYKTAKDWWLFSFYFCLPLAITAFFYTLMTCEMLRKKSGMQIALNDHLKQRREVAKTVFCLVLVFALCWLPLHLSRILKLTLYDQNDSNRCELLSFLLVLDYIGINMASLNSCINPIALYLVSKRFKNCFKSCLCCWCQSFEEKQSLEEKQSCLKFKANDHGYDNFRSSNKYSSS
Description: ETA/ETB selectivity: (125I)ET-3 competition binding, ETB assay in porcine cerebellum membranes (pET-B). The settings on record: porcine cerebellum membranes; 0.1 nM (125I)ET-3; read-out: pET-B IC50. On the procedure: The mixture was centrifuged at 1000×g for 10 min. The supernatant was collected and centrifuged at 60,000×g for 60 min. The precipitate was resuspended in 20 mM Tris, pH 7.4 containing protease inhibitor and centrifuged again. The final membrane pellet was resuspended in 20 mM Tris, pH 7.4 containing protease inhibitors and stored at −80° C. until used. Protein content was determined by the Bio-Rad dye-binding protein assay.
Binding assays were performed in 96-well microtiter plates pretreated with 0.1% BSA. […] After incubation, unbound ligands were separated from bound ligands by a vacuum filtration method using glass-fiber filter strips in PHD cell harvesters (Cambridge Technology, Inc., MA), washing the filter strips three times with saline (1 mL). Nonspecific binding was determined in the presence of 1 μM ET-1. IC50 values are calculated using an average of at least two separate determinations.

For the compound `CCCN(C)C(=O)CN1CC(c2ccc3c(c2)OCO3)C(C(=O)O)C1c1ccc(OC)cc1` (stereo not drawn) [Example 16, trans,trans-2-(4-Methoxyphenyl)-4-(1,3-benzodioxol-5-yl)-1-(N-(n-propyl)-N-methylaminocarbonylmethyl)-pyrrolidine-3-carboxylic acid], on ETA Receptor, the “% Inhibition of ETA at 1 μM” value is listed as 96.0%. The IC50 in test [1] turned out to be 9 nM.

Consider `CCCCN(C)C(=O)CN1CC(c2ccc3c(c2)OCO3)C(C(=O)O)C1c1ccc(OC)cc1OCOC` (stereo not drawn) [Example 31B, trans,trans-2-(4-Methoxy-2-methoxymethoxyphenyl)-4-(1,3-benzodioxol-5-yl)-1-(N-methyl-N-butylaminocarbonylmethyl)-pyrrolidine-3-carboxylic acid], for which the “% Inhibition of ETA at 1 μM” value at ETA Receptor turned out to be 93.6%. For the same compound, the IC50 in test [1] stood at 2 nM.

Take `CCCCN(C(=O)CN1CC(c2ccc3c(c2)OCO3)C(C(=O)O)C1c1ccc(OC)cc1)c1ccccc1` (stereo not drawn) [Example 291, trans,trans-2-(4-Methoxyphenyl)-4-(1,3-benzodioxol-5-yl)-1-(N-butyl-N-phenylaminocarbonylmethyl)-pyrrolidine-3-carboxylic acid]: the “% Inhibition of ETA at 1 μM” value at ETA Receptor is 100.0%. The IC50 in test [1] was found to be 9.8 nM.

For `CCCNC(=O)CN1CC(c2ccc3c(c2)OCO3)C(C(=O)O)C1c1ccc(OC)cc1` (stereo not drawn) [Example 1D, trans,trans-2-(4-Methoxyphenyl)-4-(1,3-benzodioxol-5-yl)-1-(propylaminocarbonylmethyl)-pyrrolidine-3-carboxylic acid], the “% Inhibition of ETA at 1 μM” value on ETA Receptor is recorded as 96.4%. In addition, the IC50 in test [1] was 25 nM.

With `COc1ccc(C2C(C(=O)O)C(c3ccc4c(c3)OCO4)CN2CC(=O)N(C)CC(C)C)cc1` (stereo not drawn) [Example 48, trans,trans-2-(4-Methoxyphenyl)-4-(1,3-benzodioxol-5-yl)-1-(N-methyl-N-isobutylaminocarbonylmethyl)-pyrrolidine-3-carboxylic acid], the “% Inhibition of ETA at 1 μM” value on ETA Receptor is recorded as 96.3%. The IC50 in test [1] was 0.4 nM.

In the case of `CCCCN(C)C(=O)CN1CC(c2ccc3c(c2)OCO3)C(C(=O)O)C1c1ccc(OC)cc1` (stereo not drawn) [Example 30, trans,trans-2-(4-Methoxyphenyl)-4-(1,3-benzodioxol-5-yl)-1-(N-methyl-N-butylaminocarbonylmethyl)-pyrrolidine-3-carboxylic acid], the “% Inhibition of ETA at 1 μM” value on ETA Receptor is listed as 80.0%. The IC50 in test [1] amounted to 1 nM.

For the compound `C=CCNC(=O)CN1CC(c2ccc3c(c2)OCO3)C(C(=O)O)C1c1ccc(OC)cc1` (stereo not drawn) [Example 14, trans,trans-2-(4-Methoxyphenyl)-4-(1,3-benzodioxol-5-yl)-1-(allylaminocarbonylmethyl)-pyrrolidine-3-carboxylic acid], the “% Inhibition of ETA at 1 μM” value at ETA Receptor was found to be 86.6%. Besides, in test [1], the IC50 came out at 17 nM.

`COc1ccc(C2C(C(=O)O)C(c3ccc4c(c3)OCO4)CN2CC(=O)NCC(C)C)cc1` (stereo not drawn) [Example 18, trans,trans-2-(4-Methoxyphenyl)-4-(1,3-benzodioxol-5-yl)-1-(isobutylaminocarbonylmethyl)-pyrrolidine-3-carboxylic acid]: on ETA Receptor, the “% Inhibition of ETA at 1 μM” value was found to be 97.3%. Besides, in test [1], the IC50 is 9 nM.

In the case of `CCCN(CCN1CC(c2ccc3c(c2)OCO3)C(C(=O)O)C1c1ccc(OC)cc1)S(=O)(=O)c1ccc(OC(F)(F)F)cc1` (stereo not drawn) [Example 300, trans,trans-2-(4-Methoxyphenyl)-4-(1,3-benzodioxol-5-yl)-1-(2-(N-propyl-N-(4-trifluoromethoxybenzenesulfonyl)amino)ethyl)-pyrrolidine-3-carboxylic acid], the “% Inhibition of ETA at 1 μM” value on ETA Receptor is 96.1%. Moreover, the half-maximal inhibitory concentration (IC50) in test [1] came out at 1.2 nM.

For the compound `CCCCNC(=O)CN1CC(c2ccc3c(c2)OCO3)C(C(=O)O)C1c1ccc(OC)cc1` (stereo not drawn) [Example 15, trans,trans-2-(4-Methoxyphenyl)-4-(1,3-benzodioxol-5-yl)-1-(n-butylaminocarbonylmethyl)-pyrrolidine-3-carboxylic acid], at ETA Receptor, the “% Inhibition of ETA at 1 μM” value is listed as 84.8%. For the same compound, the IC50 in test [1] is 10 nM.

Turning to `CCCCCS(=O)(=O)N(CCC)CCN1C[C@H](c2ccc3c(c2)OCO3)[C@@H](C(=O)O)[C@@H]1c1ccc(OC)c(F)c1` [Example 534], the IC50 is 50 nM in test [1] (Rattus norvegicus) and 0.36 nM in test [2].

Regarding `COc1ccc(C2C(C(=O)O)C(c3ccc4c(c3)OCO4)CN2CC(=O)N(C)C2CCCCC2)cc1` (stereo not drawn) [Example 46, trans,trans-2-(4-Methoxyphenyl)-4-(1,3-benzodioxol-5-yl)-1-(N-methyl-N-cyclohexylaminocarbonylmethyl)-pyrrolidine-3-carboxylic acid], on ETA Receptor, the “% Inhibition of ETA at 1 μM” value was found to be 90.4%. Moreover, the IC50 in test [1] was determined as 2 nM.

As for `CCCN(CCC)C(=O)CN1CC(c2ccc3c(c2)OCO3)C(C(=O)O)C1c1ccc(OC)cc1` (stereo not drawn) [Example 47, trans,trans-2-(4-Methoxyphenyl)-4-(1,3-benzodioxol-5-yl)-1-(N,N-di(n-propyl)aminocarbonylmethyl)-pyrrolidine-3-carboxylic acid], on ETA Receptor, the “% Inhibition of ETA at 1 μM” value was 95.1%. For the same compound, the IC50 in test [1] came out at 0.5 nM.

Turning to `COc1ccc(C2C(C(=O)O)C(c3ccc4c(c3)OCO4)CN2CC(=O)NC2CCCC2)cc1` (stereo not drawn) [Example 19, trans,trans-2-(4-Methoxyphenyl)-4-(1,3-benzodioxol-5-yl)-1-(cyclopentylaminocarbonylmethyl)-pyrrolidine-3-carboxylic acid], the “% Inhibition of ETA at 1 μM” value at ETA Receptor amounted to 90.3%. Also, the IC50 in test [1] stood at 24 nM.
